According to paper PMC11087398, “Evaluation of 1,10-phenanthroline-based hydroxamate derivative as dual histone deacetylases/ribonucleotide reductase inhibitor with antitumor activities” (DARU Journal of Pharmaceutical Sciences, 2024):
Like-named read-outs stand apart in the source and are kept apart here.

What was measured:
[1] = tested on: SiHa cells; test: In vitro cell migration (scratch) assay; type: cell-based, human; settings: IC50 concentration, 48 h post-wounding, control group 19.64%
Description: SiHa cells were cultured in 6-well plates using DMEM with 10% FBS until they formed a monolayer. A scratch was done on the cell monolayer by using a sterile 200 μL pipette tip. Subsequently, the cells were treated with the PA at IC50 concentration, and the extent of cell migration was assessed by analyzing the wound area at 0th, 24th, and 48th h time intervals using ImageJ software (Wayne Rasband, USA).

[2] = tested on: RR (3H-thymidine incorporation into DNA of SiHa cells); test: Inhibition of DNA synthesis (3H-thymidine incorporation) as RR activity; type: cell-based; settings: Homo sapiens, 48 h treatment
Description: SiHa cells (5 × 10^6) were treated with varying test compound concentrations for 48 h. Following incubation, cells were pulsed with 5 nM ^3H-thymidine for 30 min at 37 °C. After collection, washing, and total DNA extraction, radioactivity was quantified as counts per min (CPM) using a Tri-carb 2900TR liquid scintillation (Perkin Elmer, USA).

[3] = tested on: foreskin fibroblast cells; test: MTT cell viability assay; type: cell-based; settings: 48 h, normal human fibroblast cells, mean ± SD, read-out: Antiproliferative activity IC50, Fibroblast
Description: (§1) Human cancer cells (SiHa, HepG2, MCF7, Cal27) were obtained from ATCC, while foreskin fibroblast cells were generated at the Manipal School of Life Sciences. Cells were cultured in DMEM with 10% FBS, maintained in an Eppendorf CellXpert® C170 incubator at 37 °C with 5% CO2, and medium was renewed every 48–72 h.
(§2) Cancer cells (1 × 10^5 cells/mL) and fibroblast cells (5 × 10^4 cells/mL) were seeded in 96-well plates. Test compounds, dissolved in DMSO and diluted in DMEM with 10% FBS, were treated for 48 h. MTT (5 mg/mL) was added, and after 4 h, absorbance was measured at 570 and 630 nm using a VARIOSKAN™ 3001 multimode multiplate reader.

[4] = tested on: SiHa cells; test: Apoptosis assay (Annexin V/propidium iodide flow cytometry); type: cell-based, human; settings: 48 h
Description: SiHa cells were cultured at a density of 1 × 10^6 cells/mL in 10 cm plates. Upon reaching 80% confluency, cells were subjected to 48 h treatment with test compounds (IC50 and IC70). Following two PBS washes, trypsinization, and suspension in Annexin V binding buffer, cells were incubated, stained with propidium iodide, and analyzed for apoptosis using Apoptosis Detection Kit I and Partec CyFlow Space with FloMax software (Germany).

[5] = tested on: HDAC (SiHa cell nuclear extracts); test: In vitro fluorescent HDAC assay; type: biochemical, human; settings: substrate Boc-Lys(Ac)-AMC, read-out: HDAC inhibitory activity IC50
Description: In a black 96-well plate, HDAC assay buffer, varied concentrations of test compounds, and SiHa cell nucleus extract were combined and incubated for 30 min. The enzymatic reaction commenced with the addition of the fluorescent substrate, Boc-Lys(Ac)-AMC, and lasted for 2 h at 37 °C. Reaction termination involved adding a developer, followed by an additional incubation at room temperature for 10–15 min. Fluorescence intensity was assessed using a VARIOSKAN™ 3001 multimode multiplate reader at an excitation wavelength of 354 nm and emission wavelength of 450 nm.

[6] = Partition coefficient 1-octanol/water; type: physicochemical; settings: 1-octanol/water (MOPS buffer), pH 7.4; read-out: log (Kpart7.4), partition coefficient
Description: The partition coefficient (Kpart) of PA was determined in a 1-octanol/water system. 1-octanol was added to MOPS buffer containing PA (IC50), and OD at 276 nm was measured before and after each addition. Kpart values were calculated..

[7] = tested on: SiHa cells; test: Anchorage-dependent colony formation assay; type: cell-based, human; settings: IC50 concentration of each compound
Description: SiHa cells (500 cells/well) were seeded in 6 cm plates. After 24 h, cells were treated with the IC50 concentration of test compounds and incubated for 21 days with media changes every three days. On day 21, colonies were stained with 0.4% crystal violet for 10 min, washed twice with PBS, and then counted.

[8] = tested on: MCF7; test: MTT cell viability assay; type: cell-based, human; settings: mean ± SD, read-out: Antiproliferative activity IC50, MCF7
Description: as §1, §2

[9] = tested on: SiHa; test: MTT cell viability assay; type: cell-based, human; settings: 48 h, mean ± SD, read-out: Antiproliferative activity IC50, SiHa
Description: as §1, §2

[10] = tested on: HepG2; test: MTT cell viability assay; type: cell-based, human; settings: mean ± SD, read-out: Antiproliferative activity IC50, HepG2
Description: as §1, §2

[11] = tested on: Cal27; test: MTT cell viability assay; type: cell-based, human; settings: mean ± SD, read-out: Antiproliferative activity IC50, Cal27
Description: as §1, §2

[12] = tested on: SiHa cells; test: Cell cycle analysis (propidium iodide flow cytometry); type: cell-based, human; settings: IC50 concentration, 48 h
Excerpt: After trypsinization, cells were fixed in 70% ethanol, treated with RNase-A, stained with propidium iodide, and analyzed using the Partec CyFlow Space with FloMax software (Germany).

[13] = tested on: Acetyl-Histone H3 in SiHa cells; test: Western blot of acetylated histone H3; type: cell-based, human; settings: PA 10 and 20 µM, 48 h
Description: SiHa cells (2 × 10^5 cells/well) were cultured in 6-well plates, treated with varied concentrations of test compounds for 48 h, and lysed in RIPA buffer. After centrifugation, protein content was quantified using Bradford assay. Protein extracts were subjected to SDS-PAGE and were transferred to the nitrocellulose membrane. Following blocking, membranes were probed with CST antibodies (Acetyl-Histone H3, B-Actin) at 1:3000 dilution and secondary anti-rabbit antibodies (1:5000 dilution). iBright™ CL1500 Imaging System captured the images.

[14] = tested on: intracellular dNTP levels in SiHa cells; test: dNTP pool analysis (HPLC); type: cell-based, human; settings: IC50 concentration
Description: Harvested duplicate samples (1 million cells each) were washed with ice-cold PBS, and an extraction solution (6.5: 3.5 of acetonitrile and water mixture with 100 mM formic acid) was added. After incubation and centrifugation, the solution was lyophilized, reconstituted in 100 µL HPLC buffer A, and analyzed on a Waters Symmetry C18 column using HPLC. A stepwise gradient of Buffer A and B was employed, with detection at 260 and 280 nm, as mentioned by Crona et al., in 2016 [34]. Quantification was based on peak area measurements in the chromatogram, providing relative quantification of the analyzed components.

[15] = tested on: SiHa cells; test: Suppression of cytotoxicity by iron supplementation (FAC co-administration, MTT); type: cell-based, human; settings: PA at IC50 with FAC 25, 50, 100 µM, MTT after 48 h
Description: To confirm the intracellular Fe^3+ chelation ability of PA, three different concentrations (25, 50, 100 µM) of ferric ammonium citrate (FAC) with PA (IC50) were co-administered in SiHa cells, and the cell viability was assessed using MTT after 48 h.

IC50 [2] [µM] | IC50 [5] [µM] | logD [6] | IC50 ([8]; Homo sapiens, MCF7, 48 h) [µM] | IC50 ([10]; Homo sapiens, HepG2, 48 h) [µM] | IC50 ([8]; 48 h) [µM] | IC50 ([10]; 48 h) [µM] | Structure (SMILES) | wound area percentage [1] [%] | IC50 [3] [µM] | early apoptosis ([4]; IC50 concentration) [%] | early apoptosis ([4]; IC70 concentration) [%] | clonogenic efficiency (colony formation) [7] [%] | IC50 ([9]; Homo sapiens, SiHa) [µM] | IC50 ([11]; Homo sapiens, CAL-27, 48 h) [µM] | cell cycle progression [12] | acetylated Histone H3 levels (western blot) [13] | intracellular dNTP levels [14] | effect of ferric ammonium citrate (FAC) co-administration on cytotoxicity [15] | IC50 [9] [µM] | IC50 ([11]; 48 h) [µM]
9.34 | 10.8 | 0.82 | > 100 | > 100 |  |  | O=C(CCCCCCC(=O)Nc1cc2cccnc2c2ncccc12)NO [PA, N^1-hydroxy-N^8-(1,10-phenanthrolin-5-yl)octanediamide] | 56.33 | > 100 | 3.63 | 2.58 | 1.99 | 16.4 ± 4.71 | 51 ± 3.08 | increased the cell population at the S phase and a concentration-dependent elevation in the G2/M phase | dose-dependent increase in acetylated Histone H3 levels | marked decrease in intracellular dNTP levels | FAC reduced PA cell toxicity in a concentration-dependent manner |  | 
 |  |  | 48.8 ± 12 | > 100 |  |  | c1cnc2c(c1)ccc1cccnc12 [1,10-Phenanthroline] |  | > 100 |  |  |  | 42.9 ± 2.53 | 53 ± 2.18 |  |  |  |  |  | 
 |  |  |  |  | > 100 | > 100 | NC(=O)NO [HU, Hydroxyurea] |  | > 100 |  |  |  |  |  |  |  |  |  | > 100 | > 100

Structure (SMILES) | IC50 [2] [µM] | IC50 [5] [µM] | logD [6] | IC50 ([8]; Homo sapiens, MCF7, 48 h) [µM] | IC50 ([10]; Homo sapiens, HepG2, 48 h) [µM] | IC50 ([8]; 48 h) [µM] | IC50 ([10]; 48 h) [µM] | wound area percentage [1] [%] | IC50 [3] [µM] | early apoptosis ([4]; IC50 concentration) [%] | early apoptosis ([4]; IC70 concentration) [%] | clonogenic efficiency (colony formation) [7] [%] | IC50 ([9]; Homo sapiens, SiHa) [µM] | IC50 ([11]; Homo sapiens, CAL-27, 48 h) [µM] | cell cycle progression [12] | acetylated Histone H3 levels (western blot) [13] | intracellular dNTP levels [14] | effect of ferric ammonium citrate (FAC) co-administration on cytotoxicity [15] | IC50 [9] [µM] | IC50 ([11]; 48 h) [µM]
CC(=O)N(O)CCCCCNC(=O)CCC(=O)N(O)CCCCCNC(=O)CCC(=O)N(O)CCCCCN [DFO, Deferoxamine] |  |  |  | > 100 | > 100 |  |  |  | > 100 |  |  | 44.63 | 71.5 ± 5.02 | 46 ± 3.07 |  |  |  |  |  | 
